Values quoted from earlier work as cited in US8815303B2, “Multifunctional compositions having combined insecticidal, miticidal and fungicidal activity” (priority 2004, dated 2014).
Read-outs that look alike come from different tables or passages of the source.

Key:
[1] = tested on: powdery mildew and/or blackspot; conditions: for management of powdery mildew and/or blackspot: weekly sprays of 0.5% (w/w) aqueous solution
rose powdery mildew = conditions: intact plants, after one adaxial foliar spray application
[2] = 0.5% concentration (the more effective dose)

Structure (SMILES)	powdery mildew severity ([1]; 0.25% concentration)	powdery mildew severity [1, 2]	management of powdery mildew and/or blackspot [1]	host epidermal layers (rose powdery mildew)	superficial pathogen structures (rose powdery mildew)
O=C([O-])O.[K+] [potassium bicarbonate]	significantly reduce	significantly reduce	significantly managed	recover completely from infection	eradicated
O=C([O-])O.[Na+] [sodium bicarbonate]	significantly reduce	significantly reduce	significantly managed	–	–
